Experimental data as given in publication PMC12007089, “Applying Isothermal Titration Calorimetry and Saturation Transfer Difference-NMR to Study the Mode of Interaction of Flavan-3-ols with α-Amylase to Understand Their Impact on Starch Hydrolysis” (Journal of Agricultural and Food Chemistry, 2025).

Target: T1, porcine pancreatic α-amylase (Sus scrofa, UniProt P00690)
T1 sequence (P00690 16-511): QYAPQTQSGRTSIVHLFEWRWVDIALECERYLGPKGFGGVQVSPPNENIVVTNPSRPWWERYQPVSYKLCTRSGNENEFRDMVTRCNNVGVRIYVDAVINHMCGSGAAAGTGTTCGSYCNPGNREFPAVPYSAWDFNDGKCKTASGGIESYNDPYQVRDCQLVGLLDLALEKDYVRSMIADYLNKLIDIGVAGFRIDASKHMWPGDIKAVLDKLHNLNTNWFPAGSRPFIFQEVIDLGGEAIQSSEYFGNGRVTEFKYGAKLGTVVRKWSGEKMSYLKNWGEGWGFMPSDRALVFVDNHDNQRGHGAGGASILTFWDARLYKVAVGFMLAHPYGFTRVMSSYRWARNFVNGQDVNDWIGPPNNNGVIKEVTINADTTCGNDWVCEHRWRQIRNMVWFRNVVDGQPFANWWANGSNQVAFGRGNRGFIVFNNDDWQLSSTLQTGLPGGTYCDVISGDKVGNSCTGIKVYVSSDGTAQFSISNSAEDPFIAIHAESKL
Assay: 1H NMR of aggregation of PC C1 with α-amylase
Type: binding
Conditions: for adsorption of PC C1 on the surface of α-amylase: 1 mM (0.75 μmol) PC C1; for PC C1 signal intensities after addition of α-amylase: 275 K
Description: ^1H NMR experiments were conducted to investigate the aggregation of PC C1 with α-amylase. First, 1 mM PC C1 (0.75 μmol) was measured, and then, α-amylase was added at concentrations of 10 and 20 μM. The relative decrease in intensity of PC C1 signals in the range of 6.866–7.040 ppm (E2′, H6′, B2′, B5′, E5′, E6′, and H5′) was used to calculate the proportion of PC C1 aggregated with α-amylase. Blank measurements were performed with 10 and 20 μM α-amylase dissolved in the same buffer without PC C1. Data were acquired using a Bruker Avance III HD 600 MHz NMR spectrometer equipped with a 5 mm BBFO probe (Smart Probe) with ATM and a z-gradient. Spectra were recorded at 275 K (2 °C) in 0.1 M phosphate buffer/0.04 M NaCl phosphate buffer, pH 7, in D2O:H2O (9:1). The pulse program zgesgp was used with a spectral width of 16 ppm, and all spectra were recorded with 512 scans, an acquisition time of 1.70 s, and a recycle delay (D1) of 1 s. Data were analyzed using TopSpin software (version 4.4.1, Bruker).

With `Oc1cc(O)c2c(c1)O[C@H](c1ccc(O)c(O)c1)[C@H](O)[C@H]2c1c(O)cc(O)c2c1O[C@H](c1ccc(O)c(O)c1)[C@H](O)[C@H]2c1c(O)cc(O)c2c1O[C@H](c1ccc(O)c(O)c1)[C@H](O)C2` [PC C1, procyanidin C1] the “ratio of PC C1 to α-amylase” value (10 μM α-amylase) was 26, the “adsorption of PC C1 on the surface of α-amylase” value (10 μM α-amylase) was 0.20 µmol and the “ratio of PC C1 to α-amylase” value (20 μM α-amylase) was 18. For the same compound, the “adsorption of PC C1 on the surface of α-amylase” value (20 μM α-amylase) was 0.28 µmol, the “PC C1 signal intensities after addition of α-amylase” value (1 mM PC C1, 10 μM α-amylase) was 73% and the “PC C1 signal intensities after addition of α-amylase” value (1 mM PC C1, 20 μM α-amylase) was 63%.
